According to PubChem BioAssay (NCI):
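Tested at 5 concentrations; 48 h exposure; 96-well plates; endpoints linearly interpolated, else capped at highest concentration. At the GI50, growth is halved. TGI: concentration producing complete growth inhibition.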

Experiments:
Assay in all cases: NCI tumour cell line growth inhibition, 48 h
[1] = tested on: COLO 205 colon
[2] = tested on: HCC-2998 colon
[3] = tested on: KM12 colon
[4] = tested on: LOX IMVI melanoma
[5] = tested on: MOLT-4 leukemia
[6] = tested on: SK-MEL-28 melanoma
[7] = tested on: SK-OV-3 ovarian
[8] = tested on: SNB-75 CNS
[9] = tested on: TK-10 renal
[10] = tested on: U251 CNS

Row | SMILES | TGI [1] [µM] | TGI [2] [µM] | TGI [3] [µM] | TGI [4] [µM] | TGI [5] [µM] | TGI [6] [µM] | TGI [7] [µM] | TGI [8] [µM] | TGI [9] [µM] | TGI [10] [µM] | GI50 [1] [µM] | GI50 [2] [µM] | GI50 [3] [µM] | GI50 [4] [µM] | GI50 [5] [µM] | GI50 [6] [µM] | GI50 [7] [µM] | GI50 [8] [µM] | GI50 [9] [µM] | GI50 [10] [µM]
1 | O=C(O)c1c(Br)c(Br)c(Br)c(Br)c1C1c2ccc(O)cc2Oc2cc(O)ccc21 | > 100 | > 100 | > 100 | > 100 | > 100 | > 100 | > 100 | > 100 | > 100 | > 100 | – | – | – | – | – | – | – | – | – | –
2 | N#CC1=C(O)NC(O)=C(C#N)C1c1ccc(C2C(C#N)=C(O)NC(O)=C2C#N)cc1 | 63.1 | > 100 | > 100 | > 100 | > 100 | > 100 | > 100 | > 100 | > 100 | > 100 | – | – | – | – | – | – | – | – | – | –
3 | COc1cc(C)c2sc3ccccc3c(=O)c2c1NCCN(C)C | 3.51 | 9.03 | 18.9 | 13.1 | 6.81 | 3.42 | 23.6 | 13.2 | 21.2 | 14.1 | 1.86 | 2.99 | 5.22 | 3.66 | 2.58 | 1.83 | 10.9 | 2.21 | 8.83 | 3.66
4 | NC(=O)NC1C(C(=O)O)N(Cc2ccccc2)C(=O)N1Cc1ccccc1 (stereo not given) | > 100 | > 100 | > 100 | > 100 | 10.9 | > 100 | > 100 | > 100 | > 100 | > 100 | – | – | – | – | – | – | – | – | – | –
5 | CC(=O)O[C@H]1CC[C@@]2(C)C(=C/C(=N/OCCN3CCCC3)[C@H]3[C@@H]4CC[C@H](OC(C)=O)[C@@]4(C)CC[C@@H]32)C1 | 34.9 | > 100 | > 100 | 38.1 | 84.3 | 64.1 | > 100 | > 100 | > 100 | > 100 | 18.5 | 45 | 40.7 | 19.6 | 29.6 | 31.2 | 40.8 | 68 | 90.4 | 67.1
6 | Cc1ccc(C2NC(=O)c3ccccc3N2)c(C)c1 (stereo not given) | 14.2 | > 61.1 | > 100 | > 100 | > 100 | > 100 | > 100 | 6.8 | > 100 | > 39.5 | – | – | – | – | – | – | – | – | – | –
7 | Cn1cc(C(=O)c2ccccc2)cc(C(=O)c2ccccc2)c1=O | > 100 | > 100 | > 100 | > 100 | > 100 | > 100 | > 100 | > 100 | > 100 | > 100 | – | – | – | – | – | – | – | – | – | –
8 | O=c1c2cc3c(cc2c2cccc4c2n1CCC4)OCO3 | > 100 | > 100 | > 100 | > 100 | > 100 | > 100 | > 100 | > 100 | > 100 | 73.5 | – | – | – | – | – | – | – | – | – | –
9 | CC1(C)Cc2c(Br)c(Br)c(Br)c(OCC(O)CN3CCN(c4ccccn4)CC3)c2O1 (stereo not given) | 34.4 | 13.7 | 24.5 | 21.4 | 19 | 32.7 | > 100 | 39 | 30.8 | 23.3 | 15 | 3.68 | 7.78 | 9.22 | 3.19 | 18 | 33.2 | 16.3 | 14.3 | 11.3
10 | O=C1CC/C(=C/COc2cc(=O)oc3ccccc23)O1 | 17.5 | 29.5 | 25.1 | 19.7 | > 100 | 28.5 | > 100 | 11.8 | 10.5 | 23.4 | 3.61 | 15.5 | 7.14 | 6.41 | 3.78 | 14 | 22.9 | 1.58 | 2.73 | 11
11 | COc1cc2oc3c(c(=O)c2c(O)c1/C=C/C(C)C)C(C=C(C)C)Oc1cc(O)ccc1-3 (stereo not given) | 29.4 | 25.2 | 34.5 | 27.7 | 25.8 | 31.2 | 30.5 | 29.4 | 31.5 | 31.1 | – | – | – | – | – | – | – | – | – | –
12 | O=Cc1ccc(-c2ccc(-c3nc4ccccc4s3)cc2)s1 | > 100 | > 100 | > 100 | > 100 | > 100 | > 100 | > 100 | > 100 | > 100 | > 100 | > 100 | > 100 | 38.4 | 68.1 | 51.5 | > 100 | > 100 | > 100 | 70.2 | 51.9
13 | C[C@@H](CO)NC(=O)c1cc(-c2ccc(Cl)cc2)nn(-c2cnn(C)c2)c1=O | 90.6 | > 100 | > 100 | 37.2 | 91.5 | 82.1 | > 100 | 78.1 | 47 | > 100 | 24.7 | 23.1 | 59.9 | 14.6 | 15.9 | 28.4 | 82.6 | 16.7 | 3.12 | 42.9
